Data published in patent publication US20250000834A1, “COMPOSITIONS AND METHODS FOR TARGETING GPCR FOR THE PREVENTION AND TREATMENT OF PAIN” (Duke University, priority 2021, published 2025).

What was measured:
[1] = target: T1, hGPR37L1 (Homo sapiens, UniProt O60883); experiment: Beta-arrestin assay (PathHunter hGPR37L1 CHO-K1); type: cell-based; conditions: hGPR37L1 ChoK1 cells
T1 sequence (O60883 26-481): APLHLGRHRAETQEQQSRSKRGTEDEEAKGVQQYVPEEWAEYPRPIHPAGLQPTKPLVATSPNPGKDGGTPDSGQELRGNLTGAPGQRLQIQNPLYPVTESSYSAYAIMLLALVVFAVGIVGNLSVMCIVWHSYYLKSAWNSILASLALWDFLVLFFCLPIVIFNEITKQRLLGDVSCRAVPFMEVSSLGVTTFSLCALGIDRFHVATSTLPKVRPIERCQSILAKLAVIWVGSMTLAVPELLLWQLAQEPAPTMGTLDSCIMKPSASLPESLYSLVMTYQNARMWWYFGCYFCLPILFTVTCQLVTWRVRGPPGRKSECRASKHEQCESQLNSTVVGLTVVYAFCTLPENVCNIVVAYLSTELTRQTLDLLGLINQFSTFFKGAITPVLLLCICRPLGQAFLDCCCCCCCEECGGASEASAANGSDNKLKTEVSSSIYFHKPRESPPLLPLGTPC
Experimental: Beta-arrestin assay: To screen for GPR37L1 ligands, the PathHunter® eXpress GPR37L1 CHO-K1 kit was purchased from Eurofins Discoveryone™ (DiscoverX Solutions for Drug Discovery, Fremont, CA; Cat #93-0378E2ACP1M). CHO-K1 cells express human GPR37L1 and were grown in 96-well plates for 48 hours. Lipid compounds were incubated with the ChoK1 cells for 1 hour at 37° C., and GPR37L1 activation was determined by measuring chemiluminescence using the beta-arrestin 2 (β-arrestin) detection kit (DiscoverX Solutions for Drug Discovery, Fremont, CA). The luminescent activity was measured using an Infinite F200 Pro Illuminometer (Tecan Trading AG, Switzerland).
Eight different concentrations of compounds ranging from 0.1 nM to 100 nM were tested.

[2] = system: STZ-induced mechanical allodynia in mice; experiment: Streptozotocin (STZ)-induced mechanical allodynia, von Frey paw withdrawal threshold; type: in vivo, mouse; conditions: intrathecal 100 ng
Experimental: Pain models and drug injection: Animal model of chemotherapy-induced peripheral neuropathy (CIPN) was induced by paclitaxel (Sigma-Aldrich (St. Louis, MO), T7191, diluted with sterile saline). A single injection of paclitaxel ([…]) was given by intraperitoneal injection. A single injection of paclitaxel may induce mechanical allodynia for 4-6 weeks (X. Luo et al., Macrophage Toll-like Receptor 9 Contributes to Chemotherapy-Induced Neuropathic Pain in Male Mice. J Neurosci 39, 6848-6864 (2019)). Animal model of […] neuropathy was induced by streptozotocin (STZ, Sigma-Aldrich (St. Louis, MO), S0130, diluted with sterile saline). A single injection of STZ (75 mg/kg) was given as previously described (N. C. Brigham et al., Controlled release of etoricoxib from poly(ester urea) films for post-operative pain management. J Control Release 329, 316-327 (2021)). For intrathecal (i.t.) injection of MaR1, a spinal cord puncture was made by a Hamilton micro-syringe (Hamilton, Reno, NV) with a 30-gauge needle between the L5 and L6 levels to deliver reagents (5 μl) to the cerebral spinal fluid (J. L. Hylden, G. L. Wilcox, Intrathecal morphine in mice: a new technique. Eur. J Pharmacol. 67, 313-316 (1980)).
Nociceptive behavior tests: Gpr37l1^+/+, Gpr37l1^+/−, or Gpr37l1^−/− mice were habituated to the testing environment for at least two days before the baseline testing. All the animal behaviors were tested blindly. Thermal and mechanical sensitivity was tested before and after the injection of paclitaxel (PTX, 6 mg/kg, IP) and streptozotocin (STZ, 75 mg/kg, IP). MaR1 was intrathecally injected 3 days after the STZ and PTX injection. […] The 50% paw withdrawal threshold was measured by Dixon's up-down method (W. J. Dixon, Efficient analysis of experimental observations. Annu Rev Pharmacol Toxicol 20, 441-462 (1980)). Thermal sensitivity was measured using a Hargreaves radiant heat apparatus (IITC Life Science, Woodland Hills, CA) (K. Hargreaves, et al., A new and sensitive method for measuring thermal nociception in cutaneous hyperalgesia. Pain 32, 77-88 (1988)). […]

[3] = target: T1, hGPR37L1; experiment: Lipid overlay assay with lysates of hGPR37L1-transfected HEK293 cells; type: binding; parameters: expressed in transfected cells; host or cells: HEK293 Flp-In cells
Experimental: Lipids overlay assay: Lipids membrane coating and protein overlay assay were performed as previously described (S. Dowler, et al., Protein lipid overlay assay. Sci STKE 2002, p 16 (2002)). […] Compound-coated membranes were dried and blocked with 1% BSA. The coated membranes were incubated with lysates obtained from hGPR37L1-transfected HEK293 cells or mouse DRG lysate from WT or Gpr37l1 KO mice for 2 hours, followed by detection using an anti-GRP37L1 antibody (Bioss (Woburn, MA), Rabbit, 1:1000, #bs-15390R) or anti-flag antibody (Cell Signaling Technology (Danvers, MA), Rabbit, 1:1000, #14793). Blots were further incubated with an HRP-conjugated secondary anti-rabbit antibody (Jackson ImmunoResearch Laboratories (West Grove, PA), raised in donkey, 1:5000), developed in ECL solution (Pierce Biotechnology, Waltham, MA), and the signal was visualized from ChemiDoc XRS (Bio-Rad, Hercules, CA). The signal Intensity was quantified by Image J software (NIH).
A lipid overlay assay was conducted to reveal any possible binding of these lipid mediators to GPR37L1. hGPR37L1 was FLAG-tagged and expressed in HEK293 cells after hGPR37L1 cDNA transfection; the expressed protein detectable by anti-FLAG antibody (schematic not shown; see U.S. Prov. No. 63/270,198, FIG. 3A).

## CC/C=C\C/C=C\C[C@H](O)\C=C/C=C/C=C/[C@H](O)C/C=C\CCC(=O)O [MaR1, Maresin 1]
[1]
  potency relative to TX14 in β-arrestin 2 assay: 10 times
[1]; 0.1 nM to 100 nM, n=6
  β-arrestin signaling: 3.64 fold increase
[1]; n=6, read-out: EC50 of β-arrestin response
  EC50: 0.97 nM
[2]; Gpr37l1+/+ WT mice, 3 days after STZ
  effect on STZ-induced mechanical allodynia: reversed STZ-induced mechanical allodynia in all the mice
[2]; Gpr37l1+/− mice
  effect on STZ-induced mechanical allodynia: significantly reversed the mechanical allodynia in the majority
[2]; Gpr37l1−/− mice
  effect on STZ-induced mechanical allodynia: no significant effects
[3]; cell lysate from control mock transfection
  binding signal in lipid overlay assay: no positive signal
[3]; lysate of hGPR37L1 (FLAG) transfected HEK293 cells, anti-FLAG detection
  binding signal in lipid overlay assay: specific binding signal
